Measurements as given in patent US5696112A, “Fused heterocyclic azepines as vasopressin antagonists” (American Cyanamid Company, priority 1995, dated 1997).

Key:
[1] = molecular target: T1, Rat Kidney Medullary V2 Receptors (vasopressin V2) (Rattus norvegicus, UniProt Q00788); experiment: Binding Assay to Rat Kidney Medullary V2 Receptors; settings: rat kidney medullary V2, [3H]Arg8-vasopressin
T1 construct: Medullary tissues from rat kidneys are dissected out; from tissue; host or cells: rat kidney medulla membranes
T1 sequence (Q00788 whole entry): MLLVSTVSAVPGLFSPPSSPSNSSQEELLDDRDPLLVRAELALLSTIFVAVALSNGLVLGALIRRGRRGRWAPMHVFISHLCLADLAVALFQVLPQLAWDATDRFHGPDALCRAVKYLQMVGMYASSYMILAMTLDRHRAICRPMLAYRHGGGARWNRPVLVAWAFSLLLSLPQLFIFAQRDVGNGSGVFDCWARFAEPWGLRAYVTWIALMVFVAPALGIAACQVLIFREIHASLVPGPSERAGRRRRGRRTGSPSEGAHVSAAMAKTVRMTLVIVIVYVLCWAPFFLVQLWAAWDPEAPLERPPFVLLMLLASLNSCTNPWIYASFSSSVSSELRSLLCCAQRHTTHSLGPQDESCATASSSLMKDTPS
Procedure: Binding Assay to Rat Kidney Medullary V2 Receptors
Medullary tissues from rat kidneys are dissected out, cut into small pieces and let soak in a […] sodium chloride solution containing 1.0 mM EDTA with many changes of the liquid phase, until the solution is clear of blood. The tissue is homogenized in a 0.25M sucrose solution containing 1.0 mM EDTA and 0.1 mM PMSF using a Potter-Elvehjem homogenizer with a teflon pestle. The homogenate is filtered through several layers (4 layers) of cheese cloth. The filtrate is rehomogenized using a dounce homogenizer, with a tight fitting pestle. The final homogenate is contrifuged at 1500×g for 15 min. The nuclear pellet is discarded and the supernatant fluid recentrifuged at 40,000×g for 30 min. The resulting pellet formed contains a dark inner part with the exterior, slightly pink. The pink outer part is suspended in a small amount of 50.0 mMTris.HCl buffer, pH 7.4. The protein content is determined by the Lowry's method (Lowry et al, J. Biol. Chem., 1953). The membrane suspension is stored at -70° C., in 50.0 mMTris.HCl, containing 0.2% inactivated BSA and 0.1 mM PMSF in aliquots of 1.0 ml containing 10.0 mg protein per ml of suspension until use in subsequent binding experiments.
For binding experiments, the following is added in μl volume to wells of a 96 well format of a microtiter plate: 100.0 μl of 100.0 mM Tris.HCl buffer containing 0.2% heat inactivated BSA, 10.0 mM MgCl2 and a mixture of protease inhibitors: leupeptin, 1.0 mg %; aprotinin, 1.0 mg %; 1,10-phenanthroline, 2.0 mg %; trypsin inhibitor, 10.0 mg % and 0.1 mM PMSF, 20.0 μl of [^3 H]Arginine^8, vasopressin (S.A. 75.0 Ci/mmole) at 0.8 nM and the reaction initiated by the addition of 80.0 μl of tissue membranes (200.0 μg tissue protein). The plates are left undisturbed on the bench top for 120 min. to reach equilibrium. Non-specific binding is assessed in the presence of 1.0 μM of unlabeled ligand, added in 20 μl volume. For test compounds, these are solubilized in 50% dimethylsulfoxide (DMSO) and added in 20.0 μl volume to a final incubation volume of 200 μl. Upon completion of binding, the content of each well is filtered off, using a Brandel® cell Harvester (Gaithersburg, Md.). The radioactivity trapped on the filter disk by the ligand-receptor complex is assessed by liquid scintillation counting in a Packard LS Counter, with an efficiency of 65% for tritium. The data are analyzed for IC50 values by the LUNDON-2 program for competition (LUNDON SOFTWARE, OH).

[2] = molecular target: T2, Vasopressin V1 Receptor Subtype in Human Platelet Membranes (Homo sapiens, UniProt P37288); experiment: Binding to V1 Receptor Subtype in Human Platelet membranes
T2 construct: tissue Hudson Valley Blood Services, Westchester Medical Center, Valhalla, N.Y; host or cells: human platelet membranes from frozen platelet rich plasma
T2 sequence (P37288 whole entry): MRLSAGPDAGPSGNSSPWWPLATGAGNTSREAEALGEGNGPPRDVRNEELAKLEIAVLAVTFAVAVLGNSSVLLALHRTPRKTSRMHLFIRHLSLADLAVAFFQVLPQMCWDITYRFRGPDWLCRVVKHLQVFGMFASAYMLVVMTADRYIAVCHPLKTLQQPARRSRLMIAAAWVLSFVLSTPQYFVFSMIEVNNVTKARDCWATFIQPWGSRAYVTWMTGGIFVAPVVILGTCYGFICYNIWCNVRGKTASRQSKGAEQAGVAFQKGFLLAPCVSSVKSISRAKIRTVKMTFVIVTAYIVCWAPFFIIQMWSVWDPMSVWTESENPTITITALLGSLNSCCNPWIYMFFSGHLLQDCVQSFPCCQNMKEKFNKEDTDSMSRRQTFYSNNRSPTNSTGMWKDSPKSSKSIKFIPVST
Procedure: Radioligand Binding Experiments with Human Platelet Membranes
Platelet Source: Hudson Valley Blood Services, Westchester Medical Center, Valhalla, N.Y.
Platelet Membrane Preparation:
Frozen platelet rich plasma (PRP), received from the Hudson Valley Blood Services are thawed to room temperature. The tubes containing the PRP are centrifuged at 16,000×g for 10 min. at 4° C. and the supernatant fluid discarded. The platelets resuspended in an equal volume of 50.0 mMTris.HCl, pH 7.5 containing 120 mM NaCl and 20.0 mM EDTA. The suspension is recentrifuged at 16,000×g for 10 min. This washing step is repeated one more time. The wash is discarded and the lysed pellets homogenized in low ionic strength buffer of Tris.HCl, 5.0 mM, pH 7.5 containing 5.0 mM EDTA. The homogenate is centrifuged at 39,000×g for 10 min. The resulting pellet is resuspended in Tris.HCl buffer, 70.0 mM, pH 7.5 and recentrifuged at 39,000×g for 10 min. The final pellet is resuspended in 50.0 mM Tris.HCl buffer pH 7.4 containing 120 mM NaCl and 5.0 mM HCl to give 1.0-2.0 mg protein per ml of suspension.
Binding to Vasopressin V1 Receptor Subtype in Human Platelet Membranes:
In wells of a 96 well format microtiter plate, add 100 μl of 50.0 mM Tris.HCl buffer containing 0.2% BSA and a mixture of protease inhibitors (aprotinin, leupeptin etc.). Then add 20 μl of [^3 H]Ligand: (Manning or Arg^8 Vasopressin), to give final concentrations ranging from 0.01 to 10.0 nM. Initiate the binding by adding 80.0 μl of platelet suspension (approx. 100 μg protein). Mix all reagents by pipetting the mixture up and down a few times. Non-specific binding is measured in the presence of 1.0 μM of unlabeled ligand (Manning or Arg^8 Vasopressin). Let the mixture stand undisturbed at room temperature for ninety (90) min. Upon this time, rapidly filter off the incubate under vacuum suction over GF/B filters, using a Brandel® Harvester. Determine the radioactivity caught on the filter disks by the addition of liquid scintillant and counting in a liquid scintillator

[3] = molecular target: T3, oxytocin receptors (Rattus norvegicus, UniProt P70536); experiment: Oxytocin Receptor Binding; design: species or system Sprague-Dawley rats; settings: 10 μM
T3 construct: The uteri are dissected out, cleaned of fat and connective tissues; from tissue; host or cells: uterus membranes of DES-treated female Sprague-Dawley rats
T3 sequence (P70536 1-388): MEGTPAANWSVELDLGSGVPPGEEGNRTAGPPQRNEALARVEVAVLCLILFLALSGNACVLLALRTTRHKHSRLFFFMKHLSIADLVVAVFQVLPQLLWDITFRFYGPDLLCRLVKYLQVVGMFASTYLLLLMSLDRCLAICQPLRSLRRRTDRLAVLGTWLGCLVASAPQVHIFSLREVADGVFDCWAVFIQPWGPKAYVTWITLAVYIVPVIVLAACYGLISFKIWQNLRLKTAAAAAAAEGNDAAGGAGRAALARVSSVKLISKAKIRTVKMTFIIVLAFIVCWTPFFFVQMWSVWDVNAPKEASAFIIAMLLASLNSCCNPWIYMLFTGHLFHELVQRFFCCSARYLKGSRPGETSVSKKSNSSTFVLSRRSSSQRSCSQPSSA
Procedure: Oxytocin Receptor Binding
Female Sprague-Dawley rats weighing approximately 200-250 g are injected intramuscularly (i.m.) with 0.3 mg/kg of body weight of diethylstilbestrol (DES). The rats are sacrificed 18 hours later under pentobarbital anesthesia. The uteri are dissected out, cleaned of fat and connective tissues and rinsed in 50 ml of normal saline. The tissue pooled from six rats is homogenized in 50 ml of 0.01 mMTris.HCl, containing 0.5 mM dithiothreitol and 1.0 mM EDTA, adjusted to pH 7.4, using a polytron at setting 6 with three passes of 10 sec each. The homogenate is passed through two (2) layers of cheesecloth and the filtrate centrifuged at 1000×g for 10 min. The clear supernatant is removed and recentrifuged at 165,000×g for 30 min. The resulting pellet containing the oxytocin receptors is resuspended in 50.0 mM Tris.HCl containing 5.0 mM MgCl2 at pH 7.4, to give a protein concentration of 2.5 mg/ml of tissue suspension. This preparation is used in subsequent binding assays with [^3 H]Oxytocin.
Binding of 3,5-[^3 H]Oxytocin ([^3 H]OT) to its receptors is done in microtiter plates using [^3 H]OT, at various concentrations, in an assay buffer of 50.0 mM Tris.HCl, pH 7.4 and containing 5.0 mM MgCl2, and a mixture of protease inhibitors: BSA, 0.1 mg; aprotinin, 1.0 mg; 1,10-phenanthroline, 2.0 mg; […], 10.0 mg; and PMSF, 0.3 mg per 100 ml of buffer solution. Nonspecific binding is determined in the presence of 1.0 uM unlabeled OT. The binding reaction is terminated after 60 min., at 22° C., by rapid filtration through glass fiber filters using a Brandel® cell harvester (Biomedical Research and Development Laboratories, Inc., Gaithersburg, Md.). Competition experiments are conducted at equilibrium using 1.0 nM [^3 H]OT and varying the concentration of the displacing agents. The concentrations of agent displacing 50% of [^3 H]OT at its sites (IC50) are calculated by a computer assisted LUNDON-2 program (LUNDON SOFTWARE INC., Ohio, USA).

How did the IC50 [1] turn out when Cc1ccc(F)cc1C(=O)Nc1ccc(C(=O)N2CCC=Cc3sccc32)c(Cl)c1 [Example 184, N-[4-[(5,6-Dihydro-4H-thieno[3,2-b]azepin-4-yl)carbonyl]-3-chlorophenyl]-5-fluoro-2-methylbenzamide] was run?
The IC50 was 0.03 µM.

What about the IC50 [2] of the same compound?
Its IC50 is 1.3 µM.

And the inhibition at 10 µM [3]?
The inhibition at 10 µM was 76%.
